Laboratory results taken from patent publication US20060035995A1, “Photosensitive amine generator, photocurable composition and photoreactive adhesive composition” (Sekisui Chemical Co., Ltd., priority 2000, published 2006).

How the values were obtained:
[1] = Solubility in tetrahydrofuran; format: physicochemical; conditions: 1 part by weight of compound in 100 parts by weight of tetrahydrofuran
Excerpt: (§1) Evaluation was made by three ranks, i.e., by 0 if the composition dissolved completely and provided a clear mixture, by ▴ if it almost dissolved but provided a slightly cloudy mixture and by X if it little dissolved.

[2] = Compatibility with the epoxy resin (EPICOAT 828); format: physicochemical; conditions: 1 part by weight of compound in 100 parts by weight of epoxy resin (EPICOAT 828)
Excerpt: as §1

[3] = Compatibility with the urethane prepolymer (1); format: physicochemical; conditions: 1 part by weight of compound in 100 parts by weight of urethane prepolymer (1)
Excerpt: as §1

[4] = radiation at 254 nm; cited from earlier work

SMILES | Solubility THF [1] | Solubility Epoxy Resin [2] | Solubility Prepolymer [3] | quantum yield [4]
CC(=NOC(=O)NCCCCCCNC(=O)ON=C(C)c1ccccc1)c1ccccc1 [Example 1] | ◯ |  |  | 
C=C(C)C(=O)OCCNC(=O)ON=C(C)c1ccccc1 [Example 4] | ◯ | ◯ | ◯ | 
NC(=O)OCc1ccccc1[N+](=O)[O-] [o-nitrobenzyl carbamate] |  |  |  | about 0.13
